The values below come from patent US20240102075A1, “METHOD FOR QUANTIFYING 25-HYDROXYVITAMIN D, HYDROXYLASE, QUANTIFICATION COMPOSITION, QUANTIFICATION KIT, ELECTRODE, SENSOR CHIP, AND SENSOR” (KIKKOMAN CORPORATION, priority 2021, published 2024).

The conditions of series [1]: cited from earlier work.
The nature of series [2]: hydroxylase activity using ferredoxin as a mediator, absorbance at 340 nm. The note with it: 0.5 mM 25-hydroxyvitamin D3, ferredoxin/ferredoxin reductase/NADPH, 90 seconds, 30° C. It is filed as biochemical. The method, then: VDH obtained by the above-described method and ferredoxin were used to measure hydroxylase activity using 25-hydroxyvitamin D3, which is a vitamin D derivative, as a substrate.
4.19 mg of 25-hydroxyvitamin D3 was dissolved in 1 ml of DMSO (final concentration: 10 mM). Since 25-hydroxyvitamin D3 is lipid-soluble, it was diluted to 1 mM (concentration at the time of measurement: 0.5 mM) using 4.0% (v/v) TritonX-100 solution to maintain solubility.
After incubating 500 μl of the measurement reagent consisting of the composition of Table 2 at 30° C. for 3 minutes, 500 μl of the substrate reagent was added, and the absorbance (Abs) at the wavelength 340 nm was measured over time for 90 seconds using a spectrophotometer (U-3900, manufactured by Hitachi High-Tech Science Corporation). […] Therefore, it was shown that 25-hydroxyvitamin D can be quantified by hydroxylase activity of VDH using ferredoxin as a mediator.

Take 25-hydroxyvitamin D: the blood half-life in series [1] (in vivo) is on record as 2-3 weeks. Take 1,25-dihydroxyvitamin D: in series [1] (in blood), the “half-life in the blood” value was “about 15 hours”.

B1: VDH: Vitamin D hydroxylase derived from Pseudonocardia autotrophica NBRC12743 strain, SEQ ID NO: 1, expressed in E. coli (protein, listed as Pseudonocardia autotrophica)
chain: MALTTTGTEQHDLFSGTFWQNPHPAYAALRAEDPVRKLALPDGPVWLLTRYADVREAFVDPRLSKDWRHTLPEDQRADMPATPTPMMILMDPPDHTRLRKLVGRSFTVRRMNELEPRITEIADGLLAGLPTDGPVDLMREYAFQIPVQVICELLGVPAEDRDDFSAWSSVLVDDSPADDKNAAMGKLHGYLSDLLERKRTEPDDALLSSLLAVSDEDGDRLSQEELVAMAMLLLIAGHETTVNLIGNGVLALLTHPDQRKLLAEDPSLISSAVEEFLRFDSPVSQAPIRFTAEDVTYSGVTIPAGEMVMLGLAAANRDADWMPEPDRLDITRDASGGVFFGHGIHFCLGAQLARLEGRVAIGRLFADRPELALAVGLDELVYRESTLVRGLSRMPVTMGPRSA
Consider B1, for which the “change in absorbance (A340) compared to the blank” value in series [2] is listed as “significant change in absorbance”.
